{"source": "paper PMC12559910", "about": "“A New N6‐Methyladenosine Inhibitor, Celastrol, Alleviates Rheumatoid Arthritis via Targeting IGF2BP3” (MedComm, 2025)", "biological_target": "T1, recombinant IGF2BP3 protein (Homo sapiens, UniProt O00425)", "T1 construct": "recombinant, amine-coupled to CM5 chip", "T1 sequence (O00425 whole entry)": "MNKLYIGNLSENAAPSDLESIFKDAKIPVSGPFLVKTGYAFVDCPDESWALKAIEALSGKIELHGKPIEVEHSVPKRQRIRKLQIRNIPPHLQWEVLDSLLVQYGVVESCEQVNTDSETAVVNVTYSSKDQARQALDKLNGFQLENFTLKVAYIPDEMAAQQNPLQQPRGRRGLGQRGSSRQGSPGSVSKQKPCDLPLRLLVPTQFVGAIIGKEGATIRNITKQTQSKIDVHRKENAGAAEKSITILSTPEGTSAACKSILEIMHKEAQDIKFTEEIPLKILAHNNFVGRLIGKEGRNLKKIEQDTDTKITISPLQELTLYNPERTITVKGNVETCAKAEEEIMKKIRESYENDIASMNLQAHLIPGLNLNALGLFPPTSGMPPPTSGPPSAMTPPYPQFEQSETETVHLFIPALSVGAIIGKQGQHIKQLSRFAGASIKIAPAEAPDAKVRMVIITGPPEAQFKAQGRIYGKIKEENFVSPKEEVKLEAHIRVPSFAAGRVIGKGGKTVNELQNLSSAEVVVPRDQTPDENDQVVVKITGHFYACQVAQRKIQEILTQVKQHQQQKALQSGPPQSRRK", "test": "SPR (Biacore T200, CM5 chip, steady-state fit)", "type": "binding"}
{"smiles": "CC1=C(O)C(=O)C=C2C1=CC=C1[C@@]2(C)CC[C@@]2(C)[C@@H]3C[C@](C)(C(=O)O)CC[C@]3(C)CC[C@]12C", "note": "[celastrol]", "values": [{"measurement": "Kd", "value": 1650, "unit": "nM"}]}
